Molecules are shown by their SMILES. Residues, ends and D or L forms follow the SMILES beside them. *: point of attachment. Decanoyl = CCCCCCCCCC(=O)*; CH2Cl = ClC*

The target of experiment [1] is Gamma-secretase. Kind of experiment: Inhibition of gamma secretase (unknown origin) mediated Notch activation. It is filed as protein-complex assay, Homo sapiens.
For experiment [2], the target named is Gamma-secretase. Kind of experiment: Inhibition of full-length human gamma secretase expressed in SH-SY5Y spbetaA4CTF cells assessed as reduction in amyloid beta levels after 90 mins by HTRF assay. The experiment is classed as cell-based.
The target in experiment [3] is Gamma-secretase. Nature of the experiment: Inhibition of gamma secretase (unknown origin) assessed as reduction in amyloid beta levels by HTRF assay. It is filed as protein-complex assay, Homo sapiens.
Experiment [4] addresses Gamma-secretase. Nature of the experiment: Inhibition of gamma secretase mediated Notch signaling in human SupT1 cells after 16 hrs by chemiluminescence assay. The experiment is classed as cell-based.
The target of experiment [5] is Gamma-secretase. Kind of experiment: Inhibition of gamma secretase in human SupT1 cells assessed as reduction in amyloid beta 40 after 16 hrs by chemiluminescence assay. It is filed as cell-based.
The target of experiment [6] is Gamma-secretase. Nature of the experiment: Inhibition of gamma secretase mediated Notch delta E activation in human HeLa cells expressing EGFP after 16 hrs by immunofluorescence analysis. It is filed as cell-based.
Experiment [7] has as its target Gamma-secretase. Nature of the experiment: Inhibition of gamma secretase (unknown origin) mediated Notch signaling by cell based luciferase reporter gene assay.
The target of experiment [8] is Gamma-secretase. Nature of the experiment: Inhibition of gamma secretase in human primary neuronal cells assessed as reduction in amyloid beta 40.
In experiment [9] the target is Gamma-secretase. Kind of experiment: Inhibition of gamma secretase (unknown origin). It is filed as protein-complex assay, Homo sapiens.
For experiment [10], the target named is Gamma-secretase. Nature of the experiment: Inhibition of gamma secretase (unknown origin) mediated Notch signaling. It is filed as protein-complex assay, Homo sapiens.
The target of experiment [11] is Gamma-secretase. Nature of the experiment: Inhibition of gamma secretase in human MCF7 cells assessed as reduction in amyloid beta 40 after 3 days by Western blot analysis.
The target in experiment [12] is Disintegrin and metalloproteinase domain-containing protein 17 (Homo sapiens, UniProt P78536). Nature of the experiment: Inhibition of ADAM17 (unknown origin) assessed as blockage of TNF-alpha shedding.
In experiment [13] the target is Gamma-secretase. Kind of experiment: Inhibition of gamma secretase mediated amyloid beta level reduction in HEK293 cells expressing APP after 72 hrs by chemiluminescence assay. It is filed as cell-based, Homo sapiens.
Experiment [14] addresses Gamma-secretase. Nature of the experiment: Modulation of gamma secretase (unknown origin) assessed as reduction in amyloid beta levels. It is filed as protein-complex assay, Homo sapiens.
The target in experiment [15] is Gamma-secretase. Kind of experiment: Inhibition of gamma secretase in HEK293 cells expressing APP695 assessed as reduction in amyloid beta (1 to 40 residues) by ELISA. It is filed as cell-based, Homo sapiens.
In another experiment the test system is A549. Nature of the experiment: Antitumor activity against human A549 cells xenografted in nude mouse assessed as tumor growth inhibition at 3 to 60 mg/kg qd or bid administered via oral gavage for 7 to 21 days relative to vehicle treated control. It is filed as functional.
Experiment [16] deals with Gamma-secretase. Kind of experiment: Inhibition of gamma secretase mediated Notch1 signaling in HEK293 cells expressing truncated human Notch1 by luciferase reporter gene assay. It is filed as cell-based.
Experiment [17] deals with T1, Neuroendocrine convertase 2 (Homo sapiens, UniProt P16519).
T1 sequence (P16519 whole entry): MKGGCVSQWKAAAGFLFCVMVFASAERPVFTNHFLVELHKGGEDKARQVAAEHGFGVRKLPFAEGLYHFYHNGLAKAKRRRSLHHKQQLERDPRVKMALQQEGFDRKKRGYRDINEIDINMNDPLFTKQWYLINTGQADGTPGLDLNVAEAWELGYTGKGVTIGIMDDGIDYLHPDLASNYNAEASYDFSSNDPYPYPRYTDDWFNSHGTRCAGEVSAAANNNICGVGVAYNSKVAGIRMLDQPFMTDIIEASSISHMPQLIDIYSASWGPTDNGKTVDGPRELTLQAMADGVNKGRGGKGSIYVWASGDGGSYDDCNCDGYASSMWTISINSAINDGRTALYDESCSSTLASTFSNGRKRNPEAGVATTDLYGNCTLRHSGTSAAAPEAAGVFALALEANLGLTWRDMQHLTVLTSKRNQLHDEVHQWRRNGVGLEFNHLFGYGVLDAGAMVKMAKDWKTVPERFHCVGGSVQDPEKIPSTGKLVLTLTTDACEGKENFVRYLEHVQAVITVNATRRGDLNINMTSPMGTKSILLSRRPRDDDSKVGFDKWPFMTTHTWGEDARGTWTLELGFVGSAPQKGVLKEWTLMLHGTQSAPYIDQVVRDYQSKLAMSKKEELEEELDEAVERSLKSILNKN
Nature of the experiment: Inhibition of recombinant C-terminal truncated human SPC2 expressed in drosophila Schneider 2 cells after 1 hr by spectrofluorometry. The experiment is classed as cell-based.

For experiment [18], the target named is T2, Neuroendocrine convertase 1 (Homo sapiens, UniProt P29120).
T2 sequence (P29120 whole entry): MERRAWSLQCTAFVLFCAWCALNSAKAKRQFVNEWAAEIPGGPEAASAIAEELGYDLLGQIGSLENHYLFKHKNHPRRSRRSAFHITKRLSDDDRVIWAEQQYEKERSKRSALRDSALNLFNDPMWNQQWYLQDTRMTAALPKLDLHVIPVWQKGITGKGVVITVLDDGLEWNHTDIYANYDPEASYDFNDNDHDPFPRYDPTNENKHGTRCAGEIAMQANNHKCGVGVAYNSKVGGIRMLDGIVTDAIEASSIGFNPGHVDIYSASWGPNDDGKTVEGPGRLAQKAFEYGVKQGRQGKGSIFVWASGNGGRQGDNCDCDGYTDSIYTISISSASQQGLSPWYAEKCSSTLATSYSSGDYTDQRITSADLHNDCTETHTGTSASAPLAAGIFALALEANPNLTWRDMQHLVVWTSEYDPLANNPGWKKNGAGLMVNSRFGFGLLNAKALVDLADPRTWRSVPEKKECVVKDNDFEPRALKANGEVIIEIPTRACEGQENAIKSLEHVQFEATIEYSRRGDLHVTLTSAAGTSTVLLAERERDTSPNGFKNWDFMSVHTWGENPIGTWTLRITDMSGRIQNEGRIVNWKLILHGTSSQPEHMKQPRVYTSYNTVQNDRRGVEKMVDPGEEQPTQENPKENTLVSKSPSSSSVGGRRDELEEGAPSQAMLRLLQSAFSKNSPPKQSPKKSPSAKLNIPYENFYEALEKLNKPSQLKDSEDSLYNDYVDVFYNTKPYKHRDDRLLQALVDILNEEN
Kind of experiment: Inhibition of recombinant C-terminal truncated human SPC3 expressed in drosophila Schneider 2 cells after 1 hr by spectrofluorometry. It is filed as cell-based.

Experiment [19] concerns the target Gamma-secretase. Kind of experiment: Inhibition of gamma secretase (unknown origin) mediated Notch M1726V mutant activation in CHO K1 cells after 48 hrs by chemiluminescence assay.
Experiment [20] has as its target Gamma-secretase. Nature of the experiment: Inhibition of gamma secretase (unknown origin) mediated APP cleavage in CHO cells expressing APP Swedish KM/NL mutant assessed as reduction in amyloid beta 40 after 24 hrs by sandwich ELISA.

Chain of Disintegrin and metalloproteinase domain-containing protein 17 (P78536 whole entry, the tested form may be a part): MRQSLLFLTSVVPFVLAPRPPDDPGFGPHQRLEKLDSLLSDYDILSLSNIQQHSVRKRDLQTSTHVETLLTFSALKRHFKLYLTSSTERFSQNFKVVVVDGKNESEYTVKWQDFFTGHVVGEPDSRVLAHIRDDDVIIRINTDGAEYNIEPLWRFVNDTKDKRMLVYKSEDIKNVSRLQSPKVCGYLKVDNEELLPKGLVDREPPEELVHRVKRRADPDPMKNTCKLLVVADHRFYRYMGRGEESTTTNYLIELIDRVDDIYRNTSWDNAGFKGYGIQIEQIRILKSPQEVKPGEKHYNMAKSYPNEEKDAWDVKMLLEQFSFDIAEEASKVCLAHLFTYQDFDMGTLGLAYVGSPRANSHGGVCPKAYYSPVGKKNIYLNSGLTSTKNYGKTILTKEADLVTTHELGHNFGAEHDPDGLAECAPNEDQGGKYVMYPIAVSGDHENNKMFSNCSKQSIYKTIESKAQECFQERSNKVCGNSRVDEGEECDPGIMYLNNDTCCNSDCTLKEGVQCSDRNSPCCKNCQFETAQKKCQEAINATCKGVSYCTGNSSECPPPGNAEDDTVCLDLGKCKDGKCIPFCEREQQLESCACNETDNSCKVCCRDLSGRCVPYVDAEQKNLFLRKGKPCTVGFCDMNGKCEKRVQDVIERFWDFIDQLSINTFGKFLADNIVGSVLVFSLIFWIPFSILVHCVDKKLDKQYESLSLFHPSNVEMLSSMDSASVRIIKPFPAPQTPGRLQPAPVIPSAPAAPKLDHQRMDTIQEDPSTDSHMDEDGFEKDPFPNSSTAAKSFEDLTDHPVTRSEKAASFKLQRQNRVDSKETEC

As to `CC(C)[C@H](O)C(=O)N[C@@H](C)C(=O)N[C@@H]1C(=O)N(C)c2ccccc2-c2ccccc21`, inhibition on Gamma-secretase [1] was half-maximal at 0.27 nM (IC50).
On to `CC(C)C[C@H](NC(=O)[C@H](Cc1ccccc1)C[C@@H](O)[C@H](Cc1ccccc1)NC(=O)OC(C)(C)C)C(=O)N[C@@H](Cc1ccccc1)C(N)=O`, for which the results for the IC50 on Gamma-secretase [2] and on Gamma-secretase [3] were 115 to 200 nM and 17 nM, respectively.
Consider `C[C@H](NC(=O)Cc1cc(F)cc(F)c1)C(=O)N[C@@H]1C(=O)N(C)c2ccccc2-c2ccccc21`, for which the figures for the concentration for half-maximal inhibition (IC50) against Gamma-secretase [4] and on Gamma-secretase [5] were 2.9 nM and 2.6 nM, respectively.
Consider `CC1=C(C(=O)OC2CCCCC2)C(c2ccc([N+](=O)[O-])cc2)C2=C(CC(C)(C)CC2=O)N1` (configuration not stated), for which the IC50 against Gamma-secretase [6] worked out at 2300 nM.
For `C[C@H](NC(=O)Cc1cc(F)cc(F)c1)C(=O)N[C@H](C(=O)OC(C)(C)C)c1ccccc1`, the IC50 was 500 nM on Gamma-secretase [7] and 115 to 200 nM at Gamma-secretase [8].
In the case of `CC(C)[C@H](O)C(=O)N[C@@H](C)C(=O)N[C@@H]1C(=O)N(C)CCc2ccccc21`, the IC50 was 10.9 to 12.1 nM at Gamma-secretase [9] and 14.1 nM against Gamma-secretase [10].
Turning to `O=C(O)CC[C@H]1CC[C@@](c2cc(F)ccc2F)(S(=O)(=O)c2ccc(Cl)cc2)CC1` [MK-0752], the IC50 on Gamma-secretase [11] was 5 nM.
As for `CC(C)CC(CC(=O)NO)C(=O)N[C@@H](Cc1ccc2ccccc2c1)C(=O)N[C@@H](C)C(=O)NCCN` (some centres not stated), in experiment [12], the IC50 stood at 8100 nM.
Take `COc1oc(=O)c2cc(N)ccc2c1Cl`: on Gamma-secretase [13], the IC50 was determined as 30000 nM.
In the case of `C[C@@H](C(=O)O)c1ccc(-c2ccccc2)c(F)c1` [TARENFLURBIL], the IC50 on Gamma-secretase [14] came to 100000 nM.
Turning to `CC(C)(C(=O)NCC(F)(F)C(F)(F)F)C(=O)N[C@@H]1C(=O)Nc2ccccc2-c2ccccc21` [RG-4733], the EC50 on Gamma-secretase [15] amounted to 14 nM; at Gamma-secretase [16] it was 5 nM. In addition, the TGI with A549 is on record as 66 - 91%.
For the compound `CCCCCCCCCC(=O)N[C@@H](CCCNC(=N)N)C(=O)N[C@H](C(=O)N[C@@H](CCCCN)C(=O)N[C@@H](CCCNC(=N)N)C(=O)CCl)C(C)C` (Decanoyl-RVKR-CH2Cl), the values for the Ki in [17] and in experiment [18] were 0.36 nM and 2 nM, respectively.
For the compound `O=S(=O)(N[C@H](CO)C(C(F)(F)F)C(F)(F)F)c1ccc(Cl)s1` [BEGACESTAT], the 50% inhibitory concentration (IC50) against Gamma-secretase [19] amounted to 208 nM; at Gamma-secretase [20] it was 14.8 nM.
For the compound `C[C@H](NC(=O)CCC(F)(F)F)C(=O)N[C@H]1C(=O)N(CCO)c2ncccc2-c2ccccc21`, 0.41 nM corresponded to half-maximal inhibition at Gamma-secretase [10] (IC50).
